Patent US8835472B2, “Compounds, pharmaceutical compositions and uses thereof” (Boehringer Ingelheim International GmbH, priority 2010, dated 2014)

Target: human ACC2 (Homo sapiens (Human), UniProt O00763)
Test: ACC2 assay, spectrophotometric 384 well assay (NADH-linked, coupled lactate dehydrogenase/pyruvate kinase reaction)
Assay type: biochemical
Conditions: hACC2 construct lacking the 128 N-terminal amino acids; 25° C., 340 nm over 15 minutes
Protocol: Spectrophotometric 384 Well Assay
Malonyl CoA formation by acetyl CoA carboxylases is stoichometrically linked to the consumption of ATP. ACC2 activity is measured in a NADH-linked kinetic method measuring ADP generated during the ACC reaction using a coupled lactate dehydrogenase/pyruvate kinase reaction.
For biological testing, a human ACC2 construct which lacks the 128 amino acids at the N-terminus for increased solubility (nt 385-6966 in Genbank entry AJ575592) is cloned. The protein is then expressed in insect cells using a baculoviral expression system. Protein purification is performed by anion exchange.
All compounds are dissolved in dimethyl sulfoxide (DMSO) to a concentration of 10 mM.
Assay reactions are then carried out in 384-well plates, with hACC2 in an appropriate dilution and at final assay concentrations (f.c.) of 100 mM Tris (pH 7.5), 10 mM trisodium citrate, 25 mM KHCO3, 10 mM MgCl2, 0.5 mg/mL BSA, 3.75 mM reduced L-glutathione, 15 U/mL lactate dehydrogenase, 0.5 mM phosphoenolpyruvate, 15 U/mL pyruvate kinase, compounds at different concentrations at final DMSO concentrations of 1%.
The enzymatic reaction is then started by addition of a mixture of NADH, acetyl Coenzyme A (both 200 μM f.c.) and ATP (500 uM f.c.). The decrease of the optical density (slope S) is then determined at 25° C. at a wavelength of 340 nm over 15 minutes in a spectrophotometric reader.
Each assay microtiter plate contains wells with vehicle instead of compound as controls for the non-inhibited enzyme (100% CTL; ‘HIGH’) and wells without acetyl-CoA as controls for non-specific NADH degradation (0% CTL; ‘LOW’).
The slope S is used for calculation of % CTL=(S(compound)−S(‘LOW’))/(S(‘HIGH’)−S(‘LOW’))*100. Compounds will give values between 100% CTL (no inhibition) and 0% CTL (complete inhibition).
For IC50 value determination, the sample slope in the presence of the test compound after subtraction of the low controls (S(compound)−S(‘LOW’)) are used. An IC50 value is derived from the compound slopes at different dosages after subtraction of the low controls (S(compound)−S(‘LOW’)) by non-linear regression curve fitting (equation y=(A+((B−A)/(1+((C/x)^D))))).

Chain of human ACC2 (O00763 129-2458): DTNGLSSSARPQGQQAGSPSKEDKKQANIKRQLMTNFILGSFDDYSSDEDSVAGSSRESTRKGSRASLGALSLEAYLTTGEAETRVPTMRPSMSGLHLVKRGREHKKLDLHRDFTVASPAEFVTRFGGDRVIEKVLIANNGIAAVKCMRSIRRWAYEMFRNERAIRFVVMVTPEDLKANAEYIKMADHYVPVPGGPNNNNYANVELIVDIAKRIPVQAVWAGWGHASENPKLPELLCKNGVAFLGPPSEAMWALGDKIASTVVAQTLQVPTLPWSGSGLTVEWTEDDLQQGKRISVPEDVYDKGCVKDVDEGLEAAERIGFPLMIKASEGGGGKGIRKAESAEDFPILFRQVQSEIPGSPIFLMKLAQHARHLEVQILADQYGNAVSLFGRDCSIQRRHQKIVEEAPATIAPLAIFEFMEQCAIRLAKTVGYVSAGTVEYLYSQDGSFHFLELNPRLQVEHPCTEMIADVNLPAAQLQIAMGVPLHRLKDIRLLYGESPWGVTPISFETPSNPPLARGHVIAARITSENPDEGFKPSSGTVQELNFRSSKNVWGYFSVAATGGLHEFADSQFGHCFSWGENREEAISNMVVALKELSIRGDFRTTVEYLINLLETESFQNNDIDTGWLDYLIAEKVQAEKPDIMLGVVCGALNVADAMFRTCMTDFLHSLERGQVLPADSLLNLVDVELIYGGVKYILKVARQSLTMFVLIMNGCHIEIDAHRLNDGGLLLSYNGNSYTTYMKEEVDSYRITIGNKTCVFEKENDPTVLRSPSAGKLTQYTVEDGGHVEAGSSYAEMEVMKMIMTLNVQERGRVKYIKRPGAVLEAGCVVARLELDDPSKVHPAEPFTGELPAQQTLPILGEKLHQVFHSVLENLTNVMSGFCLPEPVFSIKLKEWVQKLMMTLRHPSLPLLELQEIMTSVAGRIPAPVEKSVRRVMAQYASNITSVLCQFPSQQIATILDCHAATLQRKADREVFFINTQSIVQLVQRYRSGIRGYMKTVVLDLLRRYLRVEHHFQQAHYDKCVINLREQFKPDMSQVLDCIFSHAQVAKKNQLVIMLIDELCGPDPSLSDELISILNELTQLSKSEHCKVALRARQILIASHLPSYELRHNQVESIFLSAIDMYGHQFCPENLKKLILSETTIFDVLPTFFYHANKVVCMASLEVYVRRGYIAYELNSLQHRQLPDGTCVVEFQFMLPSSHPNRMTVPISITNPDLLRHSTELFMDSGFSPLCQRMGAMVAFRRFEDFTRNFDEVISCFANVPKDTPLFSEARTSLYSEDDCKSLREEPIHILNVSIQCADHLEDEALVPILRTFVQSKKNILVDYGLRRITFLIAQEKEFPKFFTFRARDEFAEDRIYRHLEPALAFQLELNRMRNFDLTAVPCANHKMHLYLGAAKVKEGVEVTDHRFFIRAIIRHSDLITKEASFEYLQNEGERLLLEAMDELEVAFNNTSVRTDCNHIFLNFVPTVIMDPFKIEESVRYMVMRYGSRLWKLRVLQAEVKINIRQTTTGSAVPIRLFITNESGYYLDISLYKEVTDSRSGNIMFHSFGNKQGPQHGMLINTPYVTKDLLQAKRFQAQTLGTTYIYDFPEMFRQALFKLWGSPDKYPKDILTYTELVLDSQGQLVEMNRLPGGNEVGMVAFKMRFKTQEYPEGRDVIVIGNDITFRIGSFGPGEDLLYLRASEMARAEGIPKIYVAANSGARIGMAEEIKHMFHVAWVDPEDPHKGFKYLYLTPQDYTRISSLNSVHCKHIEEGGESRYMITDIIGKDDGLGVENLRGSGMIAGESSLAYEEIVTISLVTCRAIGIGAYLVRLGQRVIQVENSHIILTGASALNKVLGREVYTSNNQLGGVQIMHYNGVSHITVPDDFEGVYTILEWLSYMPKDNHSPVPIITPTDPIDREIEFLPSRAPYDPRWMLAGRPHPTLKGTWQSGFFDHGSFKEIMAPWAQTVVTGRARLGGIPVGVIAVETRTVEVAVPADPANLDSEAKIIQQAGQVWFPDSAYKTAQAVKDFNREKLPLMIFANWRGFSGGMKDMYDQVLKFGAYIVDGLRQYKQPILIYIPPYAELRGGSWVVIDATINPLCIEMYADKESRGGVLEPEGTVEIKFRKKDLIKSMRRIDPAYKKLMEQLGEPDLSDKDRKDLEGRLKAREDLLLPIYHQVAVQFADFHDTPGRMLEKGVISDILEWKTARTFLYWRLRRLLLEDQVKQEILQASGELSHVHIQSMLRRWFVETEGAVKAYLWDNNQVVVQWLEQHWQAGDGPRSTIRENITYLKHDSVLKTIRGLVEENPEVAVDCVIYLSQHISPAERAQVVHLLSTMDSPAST

SMILES: CC(=O)NC(C)Cc1ccc(C#Cc2ccc(Oc3ccccc3)nc2)cc1 (centres unmarked) [Example 1.8]
- IC50: 200 nM

SMILES: CC(=O)NC(C)Cc1ccc(C#Cc2cnc(N3CCC(C)(C)C3)nc2)cc1 (centres unmarked) [Example 13.68]
- IC50: 230 nM

SMILES: CCOc1ccc(C#Cc2ccc(C(C)NC(=O)c3cnco3)cc2)cc1 (centres unmarked) [Example 4.45]
- IC50: 530 nM

SMILES: CC(=O)NC(C)Cc1ccc(C#Cc2cccc(C(=O)N3Cc4ccccc4C3)c2)cc1 (centres unmarked) [Example 8.42]
- IC50: 30000 nM

SMILES: COc1cc(C#Cc2ccc(CC(C)NC(C)=O)cc2)ccc1Cl (centres unmarked) [Example 3.3]
- IC50: 1300 nM

SMILES: CC(=O)NC(C)Cc1ccc(C#Cc2ccc(OCC3CC3)nc2)cc1 (centres unmarked) [Example 2.23]
- IC50: 320 nM

SMILES: CCOc1ccc(C#Cc2ccc(CCNC(=O)CC)cc2)cc1 [Example 16.1, N-(4-((4-Ethoxyphenyl)ethynyl)phenethyl)propionamide]
- IC50: 1100 nM

SMILES: COC(C)CN(C)c1nccc(C#Cc2ccc(CC(C)NC(C)=O)cc2)n1 (centres unmarked) [Example 11.17]
- IC50: 1700 nM

SMILES: COCCOc1cc(C#Cc2ccc(CC(C)NC(C)=O)cc2)ccn1 (centres unmarked) [Example 20.1, N-(2-{4-[2-(2-Methoxy-ethoxy)-pyridin-4-ylethynyl]-phenyl}-1-methyl-ethyl)-acetamide; compound with trifluoro-acetic acid]
- IC50: 980 nM

SMILES: COC(=O)NC(C)Cc1ccc(C#Cc2cnc(NC3CCC3)nc2)cc1 (centres unmarked) [Example 13.31]
- IC50: 500 nM

SMILES: CC(=O)NC(C)Cc1ccc(C#Cc2ccnc(OC(C)C)c2)cc1 (centres unmarked) [Example 2.97]
- IC50: 140 nM

SMILES: CCOc1ccc(C#Cc2ccc(CC(COC)NC(C)=O)cc2)cc1 (centres unmarked) [Example 27.2]
- IC50: 1200 nM

SMILES: CC(=O)NC(C)Cc1ccc(C#Cc2ccc(C(=O)N3CCCC3)cc2)cc1 (centres unmarked) [Example 8.45]
- IC50: 1400 nM

SMILES: CC(=O)NC(C)Cc1ccc(C#Cc2cnc(OCc3ccc(F)cc3)nc2)cc1 (centres unmarked) [Example 12.55]
- IC50: 170 nM

SMILES: CC(=O)NC(C)Cc1ccc(C#Cc2ccnc(N3CC(F)(F)C3)n2)cc1 (centres unmarked) [Example 11.22]
- IC50: 8100 nM

SMILES: CC(=O)NC(C)Cc1ccc(C#Cc2cccc(C(=O)N(C)CCO)c2)cc1 (centres unmarked) [Example 8.22]
- IC50: 6500 nM

SMILES: CC(=O)NC(C)Cc1ccc(C#Cc2ccc(OC(F)F)cc2)cc1 (centres unmarked) [Example 2.7]
- IC50: 760 nM

SMILES: CC(=O)NC(C)Cc1ccc(C#Cc2cnc(NCCC(C)(C)C)nc2)cc1 (centres unmarked) [Example 13.83]
- IC50: 190 nM

SMILES: CC(=O)NC(C)Cc1ccc(C#Cc2cnc(Oc3cccnc3)nc2)cc1 (centres unmarked) [Example 12.51]
- IC50: 1500 nM

SMILES: CC(=O)NC(C)Cc1ccc(C#Cc2ccc(OCC3(N)CC3)c(C)c2)cc1 (centres unmarked) [Example 2.5]
- IC50: 820 nM

SMILES: CC(=O)NC(C)Cc1ccc(C#Cc2ccnc(N3CCCCC3C)n2)cc1 (centres unmarked) [Example 11.39]
- IC50: 720 nM

SMILES: CC(=O)NC(C)Cc1ccc(C#Cc2cc(C)c3c(c2)oc(=O)n3C)cc1 (centres unmarked) [Example 2.81]
- IC50: 4000 nM

SMILES: COc1c(F)cc(C#Cc2ccc(CC(C)NC(C)=O)cc2)cc1F (centres unmarked) [Example 3.4]
- IC50: 560 nM

SMILES: CC(=O)NC(C)Cc1ccc(C#Cc2ccnc(N3CCCC(c4ccccc4)C3)n2)cc1 (centres unmarked) [Example 11.27]
- IC50: 400 nM

SMILES: CC(Cc1ccc(C#Cc2ccc(C(C)(C)C)cc2)cc1)NC(=O)C1CC1 (centres unmarked) [Example 14.45]
- IC50: 1000 nM

SMILES: CCOc1ccc(C#Cc2ccc(CC(C)NC(=O)CNC)cc2)cc1 (centres unmarked) [Example 4.29]
- IC50: 2700 nM

SMILES: CC(=O)NC(C)Cc1ccc(C#Cc2cccc(C(=O)N3CCCCC3)c2)cc1 (centres unmarked) [Example 8.32]
- IC50: 2100 nM

SMILES: CCOc1ccc(C#Cc2ccc(CC(C)NC(=O)C3CNC3)cc2)cc1 (centres unmarked) [Example 4.34]
- IC50: 600 nM

SMILES: CC(=O)NC(C)Cc1ccc(C#Cc2ccnc(Oc3ccccc3)c2)cc1 (centres unmarked) [Example 2.98]
- IC50: 150 nM

SMILES: CCOc1ccc(C#Cc2ccc([C@H](C)NC(C)=O)cc2)cc1 [Example 14.19]
- IC50: 190 nM

SMILES: CCN(C)c1ncc(C#Cc2ccc(CC(C)NC(C)=O)cc2)cn1 (centres unmarked) [Example 13.3]
- IC50: 1000 nM

SMILES: COC(=O)c1ccc(C#Cc2ccc(CC(C)NC(C)=O)cc2)o1 (centres unmarked) [Example 3.17]
- IC50: 880 nM

SMILES: CC(=O)NC(C)Cc1ccc(C#Cc2cnc(NCc3ccncc3)nc2)cc1 (centres unmarked) [Example 13.82]
- IC50: 1200 nM

SMILES: CC(=O)NC(C)Cc1ccc(C#Cc2ccc(OCC(C)F)cc2)cc1 (centres unmarked) [Example 9.39]
- IC50: 180 nM

SMILES: CC(Cc1ccc(C#Cc2cnc(NCCF)nc2)cc1)NC(=O)C1CC1 (centres unmarked) [Example 13.53]
- IC50: 5200 nM

SMILES: CC(Cc1ccc(C#Cc2cnc(NCc3ccncc3)nc2)cc1)NC(=O)C1CC1 (centres unmarked) [Example 13.37]
- IC50: 2600 nM

SMILES: CCOc1ccc(C#Cc2ccc(CC(C)NC(=O)CCOC)cc2)cc1 (centres unmarked) [Example 4.11]
- IC50: 1400 nM

SMILES: C[C@H](NC(=O)C1CC1)c1ccc(I)cc1 [28.1]
- IC50: 24400 nM

SMILES: CCOc1ccc(C#Cc2ccc(CC(C)NC(=O)C3CCOC3)cc2)cc1 (centres unmarked) [Example 4.33]
- IC50: 490 nM

SMILES: CCOc1ccc(C#Cc2ccc(CC(C)NC(=O)C3CCNC3=O)cc2)cc1 (centres unmarked) [Example 4.58]
- IC50: 680 nM

SMILES: CC(=O)NC(C)Cc1ccc(C#Cc2ccc(OC(C)C)cn2)cc1 (centres unmarked) [Example 1.20]
- IC50: 610 nM

SMILES: CCOc1ccc(C#Cc2ccc(CC(C)NC(=O)CC(C)C)cc2)cc1 (centres unmarked) [Example 4.23]
- IC50: 310 nM

SMILES: CCOc1ccc(C#Cc2ccc(CN3CCCC3=O)cc2)cc1 [Example 16.2]
- IC50: 3200 nM

SMILES: CC(=O)NC(C)Cc1ccc(C#Cc2cccc(OCc3cn(C)cn3)c2)cc1 (centres unmarked) [Example 9.14]
- IC50: 1600 nM

SMILES: CC(=O)NC(C)Cc1ccc(C#Cc2ccc(C(C)=O)cc2)cc1 (centres unmarked) [Example 2.19]
- IC50: 3600 nM

SMILES: COCCCOc1ccc(C#Cc2ccc(CC(C)NC(C)=O)cc2)cc1 (centres unmarked) [Example 9.30]
- IC50: 230 nM

SMILES: CC(=O)NC(C)Cc1ccc(C#Cc2ccnc(N3CCCC3)n2)cc1 (centres unmarked) [Example 11.43]
- IC50: 930 nM

SMILES: CC(=O)NC(C)Cc1ccc(C#Cc2cnc(N(C)C)nc2)cc1 (centres unmarked) [Example 13.58]
- IC50: 1200 nM

SMILES: CC(=O)NC(C)Cc1ccc(C#Cc2nccs2)cc1 (centres unmarked) [Example 3.16]
- IC50: 4700 nM

SMILES: CCOc1ccc(C#Cc2ccc(CC(C)NC(=O)C3(C)CC3)cc2)cc1 (centres unmarked) [Example 4.21]
- IC50: 140 nM

SMILES: CC(=O)NC(C)Cc1ccc(C#Cc2cnc(N[C@@H]3CCc4ccccc43)nc2)cc1 (some centres unmarked) [Example 13.63]
- IC50: 200 nM

SMILES: CC(=O)NC(C)Cc1ccc(C#Cc2ccnc(N(C)C3CCCCC3)n2)cc1 (centres unmarked) [Example 11.11]
- IC50: 260 nM

SMILES: CC(C)Oc1ccc(C#Cc2ccc([C@H](C)NC(=O)C3CC3)cc2)cc1 [Example 14.28]
- IC50: 3400 nM

SMILES: CC(=O)NC(C)CCc1ccc(C#Cc2ccc(OC3CCCC3)cc2)cc1 (centres unmarked) [Example 14.14]
- IC50: 160 nM

SMILES: CC(Cc1ccc(C#Cc2ccc(C3CC3)cn2)cc1)NC(=O)C1CC1 (centres unmarked) [Example 2.67]
- IC50: 7200 nM

SMILES: CC(=O)NC(C)Cc1ccc(C#Cc2ccc(C(=O)N(C)C)cc2)cc1 (centres unmarked) [Example 8.43]
- IC50: 3900 nM

SMILES: CC(=O)NC(C)Cc1ccc(C#Cc2cnc3ccccc3c2)cc1 (centres unmarked) [Example 2.72]
- IC50: 910 nM

SMILES: CCCc1ccc(C#Cc2ccc(CC(C)NC(=O)C3CC3)cc2)cc1 (centres unmarked) [Example 2.63]
- IC50: 460 nM

SMILES: CCOc1ccc(C#Cc2ccc(CCNC(C)=O)cc2)cc1 [Example 16.3]
- IC50: 430 nM

SMILES: CCCOc1ncc(C#Cc2ccc(CC(C)NC(=O)C3CC3)cc2)cn1 (centres unmarked) [Example 12.23]
- IC50: 1100 nM

SMILES: COc1ccc(Nc2nccc(C#Cc3ccc(CC(C)NC(C)=O)cc3)n2)cn1 (centres unmarked) [Example 11.5]
- IC50: 7200 nM

SMILES: CC(Cc1ccc(C#Cc2ccc(-c3ccc(F)cc3)cn2)cc1)NC(=O)C1CC1 (centres unmarked) [Example 1.31]
- IC50: 450 nM

SMILES: COC(=O)NC(C)Cc1ccc(C#Cc2cnc(OC(C)C)nc2)cc1 (centres unmarked) [Example 12.28]
- IC50: 1100 nM

SMILES: CCn1ccc(C#Cc2ccc(CC(C)NC(C)=O)cc2)cc1=O (centres unmarked) [Example 2.87]
- IC50: 12900 nM

SMILES: CC(=O)N[C@@H](C)c1ccc(C#Cc2cnc(Oc3ccccc3)nc2)cc1 [Example 12.68]
- IC50: 980 nM

SMILES: CCCOc1ccc(C#Cc2ccc(C(C)NC(C)=O)cc2)cn1 (centres unmarked) [Example 2.54]
- IC50: 1200 nM

SMILES: CC(=O)NC(C)Cc1ccc(C#Cc2cccc(C(=O)N3CCC(C)(C)CC3)c2)cc1 (centres unmarked) [Example 8.37]
- IC50: 1600 nM

SMILES: CC(=O)NC(C)Cc1ccc(C#Cc2ncc(Cl)cn2)cc1 (centres unmarked) [Example 2.99]
- IC50: 7400 nM

SMILES: CCOc1ccc(C#Cc2ccc(C(C)NC(=O)NCC(=O)O)cc2)cc1 (centres unmarked) [Example 6.4]
- IC50: 9600 nM

SMILES: CC(=O)NC(C)Cc1ccc(C#Cc2cnc(OCCC3CC3)nc2)cc1 (centres unmarked) [Example 12.33]
- IC50: 320 nM

SMILES: CCOc1ccc(C#Cc2ccc(CCC(C)NC(C)=O)cc2)cc1 (centres unmarked) [Example 14.10]
- IC50: 100 nM

SMILES: CCCOc1ncc(C#Cc2ccc(CC(C)NC(C)=O)cc2)cn1 (centres unmarked) [Example 12.15]
- IC50: 230 nM

SMILES: CC(=O)NC(C)Cc1ccc(C#Cc2ccc(OCC3CC3)cc2)cc1 (centres unmarked) [Example 9.20]
- IC50: 80 nM

SMILES: CCCOc1ccc(C#Cc2ccc(C(C)NC(C)=O)cc2)cc1 (centres unmarked) [Example 2.49]
- IC50: 250 nM
